{"source": "patent US20070077316A1", "about": "“Compositions and methods for treating and preventing virus infections” (priority 2005, published 2007)", "key": {"HRV14-induced vNOX": {"tested_on": "HRV14-induced vNOX", "assay": "Spectrophotometric vNOX activity assay (NADH oxidation) with HRV-infected MCF-10A cells", "details": "read-out: EC50 inhibition of vNOX"}, "HIV-1 strain 952": {"tested_on": "HIV-1 strain 952", "assay": "HIV-1 strain 952 infection of peripheral blood monocytes (p24 ELISA and syncytia titer on MT-2 cells)", "type": "cell-based", "source_text": "FIG. 4: ELISA of supernatant p24 antigen of HIV-1 strain 952 (solid line; solid symbols) and HIV-1 titer based on number of syncytia observed by light microscopy on day 5 by titration of the day 4 supernatants in previously uninfected MT-2 cells (dashed line; open symbols) as a measure of mature virus production after 4 d with HIV strain 952 (City Laboratory, Hamburg) and mononuclear cells in peripheral blood (PBMCs)=peripheral blood monocytes prepared from healthy volunteers, as described herein below. Assays were in triplicate ±standard deviations.\nAs non-permanent cells, PBM cells were derived from freshly prepared pooled buffy coats from healthy blood donors. The PBM cells were isolated by Ficoll density gradient centrifugation and cultivated (stimulated with phytohemagglutinin) for 48 h in RPMI 1640 medium supplemented with 20% FBS and L-glutamine. PBMC tropic laboratory isolate No. 9.5 was used in the PBMC assays.\nVirus replication was determined as follows. Antiviral activity was assessed at day four or five after infection by scoring p24 antigen production by a commercial kit (DuPont) and by titration of the supernatants. […] After 5 d, all wells were scored for SI formation by light microscopy. The highest dilution (titer) displaying at least one SI were scored as positive, and the highest titers were averaged. […]"}, "MT-2 cells": {"tested_on": "MT-2 cells", "assay": "Toxicity to non-infected MT-2 cells by MTT utilization", "type": "cell-based, human", "experimental": "After 5 days, 20 μl of MTT stock solution (7.5 mg/ml) was added. […] Subsequently, 100 μl of 10% v/v Triton X100 in acidified isopropanol was added, and absorbance was determined at 550 nm with reference at 630 nm. The cytotoxic effect of EGCg was reflected by a decrease of the cell viability of mock infected cells in the presence of EGCg in comparison to mock infected cells without EGCg (OD 492 nm) was lower than the value of mock infected cells without EGCg. The cytotoxicity values are given as negative values. Positive values are recorded for a stimulatory effect on cell viability and/or an increase in cell proliferation. Testing the antiviral potency of various compositions was accomplished as follows. EGCg and EC were from Sigma (St. Louis, Mo.). Stock solutions of 100 mM were prepared in ethanol and serially diluted with water between 10^−3 molar and 10^−9 molar. […] Each experiment was in a fourfold assay."}}}
{"smiles": "O=C(O[C@@H]1Cc2c(O)cc(O)cc2O[C@@H]1c1cc(O)c(O)c(O)c1)c1cc(O)c(O)c(O)c1", "note": "[EGCg, (−)-epigallocatechin-3-gallate]", "values": [{"measurement": "EC50", "setting": "HRV14-induced vNOX", "value": 10, "unit": "nM"}, {"measurement": "infection (production of infective particles based on p24 assay)", "setting": "HIV-1 strain 952; 10 μM, PBMC, strain 952", "value": "prevented"}, {"measurement": "EC50", "setting": "HIV-1 strain 952; PBMC supernatants, read-out: EC50 for inhibition of production of infective virus (syncytia formation after 5 days on MT-2 cells)", "value": "< 1000", "unit": "nM"}, {"measurement": "reduction of MTT utilization", "setting": "MT-2 cells; 10^−4 M", "value": 90, "unit": "%"}, {"measurement": "cytotoxic effects by MTT utilization", "setting": "MT-2 cells; dilutions of less than 10^−5 M", "value": "no cytotoxic effects"}]}
